Measured values from paper PMC10445290, “Enantiomeric Fractions Reveal Differences in the Atropselective Disposition of 2,2′,3,5′,6-Pentachlorobiphenyl (PCB 95) in Wildtype, Cyp2abfgs-Null, and CYP2A6-Humanized Mice” (Chemical Research in Toxicology, 2023).

Assay: Atropisomeric analysis of PCB 95 (enantiomeric fraction, EF) in tissues by chiral GC-ECD
Format: in vivo, mice
Details: racemic PCB 95 1.0 mg/kg oral, 24 h, EF = AE1/(AE1 + AE2)
Procedure: Adult male and female wild-type (WT) C57BL/6 mice, KO, and KI mice (4 months old) were exposed to racemic PCB 95. Mice were randomly assigned to exposure groups and received a single oral dose of PCB 95 (1.0 mg/kg) in stripped corn oil (10 mL/kg; lot# A0395699; cat# 801-03-7; Fisher Scientific) via gavage (5–7 mice per group). Control animals received corn oil alone (1–3 mice per group) to assess the potential background contamination with PCB 95. Animals were euthanized 24 h after PCB 95 exposure. Blood was collected from the heart and placed in pre-weighed glass vials with 80 μL of ethylenediaminetetraacetic acid solution (EDTA, 7.5%, w/w). The amount of blood in each vial was determined by weight prior to sample extraction. Adipose, brain, and liver tissues were excised from each animal and individually wrapped in aluminum foil. Samples were stored at −80 °C in separate plastic bags and shipped on dry ice to the University of Iowa for analysis.
Atropisomeric analyses of PCB 95 were performed with all samples using an Agilent 7890A gas chromatograph with a ^63Ni-μECD detector and a Chiralsil-Dex CB (25 m length, 250 μm inner diameter, 0.25 μm film thickness; Agilent, Santa Clara, CA, USA) following a published method with modifications.[48] The following temperature program was used for the atropisomeric analysis: 50 °C, hold for 1 min, 10 °C/min to 150 °C, hold for 65 min, 15 °C/min to 200 °C, and hold for 15 min. The injector and detector temperature was 250 °C, and the helium flow was 3.0 mL/min. The EF values of PCB 95 were calculated as EF = AE1/(AE1 + AE2) where AE1 and AE2 are the peak area of the first (E1) and the second eluting (E2) atropisomers, respectively. E1- and E2-PCB 95 correspond to aR- and aS-PCB 95, respectively.[16],[25]
Method blanks, blank tissue samples, and an ongoing precision and recovery standard were extracted in parallel with each sample batch. The method detection limits (MDLs) were determined based on method blanks (Table S3). Limits of quantification (LOQ) in different matrices were established based on the corresponding tissue blanks (Table S3). Surrogate standards, PCB 117 and 4′-159, were added to all samples to assess the precision and reproducibility of the analytical methods (Table S4). In addition, an ongoing precision and surrogate standard was in parallel extracted from both method and tissue blanks with each sample batch (Table S5). The resolution of atropisomers of PCB 95 on the Chiralsil Dex CB column was 1.27, calculated with the formula Rs = [tE2 – tE1)/(0.5 × (WE1 + WE2)], where tE1 and tE2 are the retention times of peaks 1 and 2, and WE1 and WE2 indicate the width of the peak E1 and E2. The EF value of the racemic standard of PCB 95 was 0.498 ± 0.004 (n = 7).
Levels of PCB 95 and its metabolites, expressed as ng per gram wet weight (ng/g), and EF values are reported as mean ± standard deviation (Tables S6 and S7). The statistical analyses were performed with two-way ANOVA with the Bonferroni model in GraphPad Prism 9.4.1 (Tables S8 and S9). In addition, OH-PCB metabolite profiles were compared using the similarity coefficient, cos θ (Tables S10 and S11).[49] The cos θ ranges from 0 to 1, where a value of 0 indicates completely different profiles and a value of 1 indicates identical profiles. The original data underlying this study are openly available through the Iowa Research Online repository at https://doi.org/10.25820/data.006613.

[1] = FKI, female CYP2A6-humanized mice
[2] = FKO, female Cyp2abfgs-null mice
[3] = MKI, male CYP2A6-humanized mice

Clc1ccc(Cl)c(-c2c(Cl)ccc(Cl)c2Cl)c1 [PCB 95, 2,2′,3,5′,6-pentachlorobiphenyl]
Enantiomeric fraction (EF) in adipose [1]: 0.35 ± 0.02 | Enantiomeric fraction (EF) in blood [1]: 0.28 ± 0.07 | Enantiomeric fraction (EF) in brain [1]: 0.29 ± 0.01 | Enantiomeric fraction (EF) in liver [1]: 0.24 ± 0.03 | Enantiomeric fraction (EF) in adipose [2]: 0.41 ± 0.05 | Enantiomeric fraction (EF) in blood [2]: 0.37 ± 0.07 | Enantiomeric fraction (EF) in brain [2]: 0.39 ± 0.05 | Enantiomeric fraction (EF) in liver [2]: 0.32 ± 0.06 | Enantiomeric fraction (EF) in adipose (FWT, female wildtype mice): 0.33 ± 0.02 | Enantiomeric fraction (EF) in blood (FWT, female wildtype mice): 0.32 ± 0.07 | Enantiomeric fraction (EF) in brain (FWT, female wildtype mice): 0.25 ± 0.03 | Enantiomeric fraction (EF) in liver (FWT, female wildtype mice): 0.20 ± 0.03 | Enantiomeric fraction (EF) in adipose [3]: 0.36 ± 0.02 | Enantiomeric fraction (EF) in blood [3]: 0.31 ± 0.03 | Enantiomeric fraction (EF) in brain [3]: 0.32 ± 0.02 | Enantiomeric fraction (EF) in liver [3]: 0.27 ± 0.03 | Enantiomeric fraction (EF) in adipose (MKO, male Cyp2abfgs-null mice): 0.38 ± 0.03 | Enantiomeric fraction (EF) in blood (MKO, male Cyp2abfgs-null mice): 0.35 ± 0.04 | Enantiomeric fraction (EF) in brain (MKO, male Cyp2abfgs-null mice): 0.34 ± 0.03 | Enantiomeric fraction (EF) in liver (MKO, male Cyp2abfgs-null mice): 0.28 ± 0.04 | Enantiomeric fraction (EF) in adipose (MWT, male wildtype mice): 0.37 ± 0.01 | Enantiomeric fraction (EF) in blood (MWT, male wildtype mice): 0.28 ± 0.02 | Enantiomeric fraction (EF) in brain (MWT, male wildtype mice): 0.31 ± 0.02 | Enantiomeric fraction (EF) in liver (MWT, male wildtype mice): 0.26 ± 0.02
